Calls of active or inactive are those of the source. For most assays here, no stated cut-off is given here; in the data, actives have a measured Kd and inactives only a lower limit.
How the values were obtained:
[1] = target: Serine/threonine-protein kinase MRCK beta (Homo sapiens, UniProt Q9Y5S2)
Activated CDC42 kinase 1 = Activated CDC42 kinase 1 (Homo sapiens, UniProt Q07912)
[2] = target: T1, Mitogen-activated protein kinase kinase kinase 6 (Homo sapiens, UniProt O95382)
T1 sequence (O95382 whole entry): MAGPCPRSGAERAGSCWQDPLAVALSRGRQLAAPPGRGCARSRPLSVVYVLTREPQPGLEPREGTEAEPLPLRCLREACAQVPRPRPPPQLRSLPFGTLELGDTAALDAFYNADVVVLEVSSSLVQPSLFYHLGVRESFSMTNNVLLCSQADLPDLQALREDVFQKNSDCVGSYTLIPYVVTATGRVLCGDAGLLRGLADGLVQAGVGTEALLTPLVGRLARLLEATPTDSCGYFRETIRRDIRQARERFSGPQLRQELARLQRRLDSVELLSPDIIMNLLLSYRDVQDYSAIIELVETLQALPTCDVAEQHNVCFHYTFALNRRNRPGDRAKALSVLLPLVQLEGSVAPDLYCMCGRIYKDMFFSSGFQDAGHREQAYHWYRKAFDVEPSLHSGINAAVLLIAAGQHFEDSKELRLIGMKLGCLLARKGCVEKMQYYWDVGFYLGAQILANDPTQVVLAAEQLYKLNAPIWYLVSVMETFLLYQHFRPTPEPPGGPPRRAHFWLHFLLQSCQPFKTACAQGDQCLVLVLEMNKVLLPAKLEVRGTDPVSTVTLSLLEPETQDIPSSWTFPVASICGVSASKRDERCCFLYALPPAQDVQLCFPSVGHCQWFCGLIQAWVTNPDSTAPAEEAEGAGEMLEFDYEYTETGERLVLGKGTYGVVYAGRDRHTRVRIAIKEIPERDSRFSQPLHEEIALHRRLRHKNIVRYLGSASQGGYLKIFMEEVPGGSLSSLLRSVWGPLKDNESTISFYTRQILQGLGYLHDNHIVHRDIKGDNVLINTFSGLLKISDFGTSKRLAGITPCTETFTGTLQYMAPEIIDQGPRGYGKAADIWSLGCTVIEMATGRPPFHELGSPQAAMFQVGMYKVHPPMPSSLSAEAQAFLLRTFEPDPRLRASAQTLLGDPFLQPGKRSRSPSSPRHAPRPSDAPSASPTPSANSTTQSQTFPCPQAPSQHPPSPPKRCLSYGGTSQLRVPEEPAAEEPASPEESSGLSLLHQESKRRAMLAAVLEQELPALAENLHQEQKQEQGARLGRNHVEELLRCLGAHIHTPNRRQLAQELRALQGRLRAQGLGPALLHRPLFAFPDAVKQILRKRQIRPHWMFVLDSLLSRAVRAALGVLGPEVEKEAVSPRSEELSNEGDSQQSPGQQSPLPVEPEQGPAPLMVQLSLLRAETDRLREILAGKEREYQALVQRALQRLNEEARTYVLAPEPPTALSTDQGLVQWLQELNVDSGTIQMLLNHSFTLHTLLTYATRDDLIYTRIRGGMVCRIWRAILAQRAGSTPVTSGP

[3] = target: TRAF2 and NCK-interacting protein kinase (Homo sapiens, UniProt Q9UKE5)
Sequence of TRAF2 and NCK-interacting protein kinase (Q9UKE5 whole entry): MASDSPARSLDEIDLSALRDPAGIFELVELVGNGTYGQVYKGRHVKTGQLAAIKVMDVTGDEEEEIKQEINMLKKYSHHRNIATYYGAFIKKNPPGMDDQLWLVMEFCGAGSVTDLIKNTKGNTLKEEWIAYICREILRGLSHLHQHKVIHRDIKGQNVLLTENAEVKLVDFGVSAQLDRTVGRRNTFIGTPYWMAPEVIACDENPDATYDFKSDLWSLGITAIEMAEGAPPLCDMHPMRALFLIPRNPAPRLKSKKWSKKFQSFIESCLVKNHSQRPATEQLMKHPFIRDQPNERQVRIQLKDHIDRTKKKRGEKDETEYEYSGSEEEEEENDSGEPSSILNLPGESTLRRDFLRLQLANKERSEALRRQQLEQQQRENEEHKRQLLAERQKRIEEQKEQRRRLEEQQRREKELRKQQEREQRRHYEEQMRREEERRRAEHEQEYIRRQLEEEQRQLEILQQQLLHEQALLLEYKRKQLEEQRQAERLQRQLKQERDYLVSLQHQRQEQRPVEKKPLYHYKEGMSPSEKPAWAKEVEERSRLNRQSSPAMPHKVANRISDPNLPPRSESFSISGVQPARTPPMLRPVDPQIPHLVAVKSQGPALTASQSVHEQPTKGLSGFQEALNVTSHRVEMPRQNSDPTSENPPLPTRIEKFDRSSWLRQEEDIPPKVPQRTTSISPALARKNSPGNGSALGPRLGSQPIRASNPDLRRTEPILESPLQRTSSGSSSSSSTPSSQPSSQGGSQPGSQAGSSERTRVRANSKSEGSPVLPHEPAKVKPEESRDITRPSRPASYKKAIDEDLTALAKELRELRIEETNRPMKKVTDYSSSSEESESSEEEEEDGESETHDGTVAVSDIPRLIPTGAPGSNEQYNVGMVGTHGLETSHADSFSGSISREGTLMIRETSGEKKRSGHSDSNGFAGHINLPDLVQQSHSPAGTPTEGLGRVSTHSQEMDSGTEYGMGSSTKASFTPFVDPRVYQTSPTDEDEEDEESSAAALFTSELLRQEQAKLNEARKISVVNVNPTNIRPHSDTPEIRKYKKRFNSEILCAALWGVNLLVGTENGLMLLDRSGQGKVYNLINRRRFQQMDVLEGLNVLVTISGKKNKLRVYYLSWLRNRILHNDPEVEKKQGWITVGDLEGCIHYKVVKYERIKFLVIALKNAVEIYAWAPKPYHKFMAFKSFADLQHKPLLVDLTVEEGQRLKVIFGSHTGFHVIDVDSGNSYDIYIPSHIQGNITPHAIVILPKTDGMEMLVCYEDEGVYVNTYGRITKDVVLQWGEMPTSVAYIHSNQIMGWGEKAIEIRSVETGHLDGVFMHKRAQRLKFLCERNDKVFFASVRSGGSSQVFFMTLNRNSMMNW

Activin receptor type-1 = target: T2, Activin receptor type-1 (Homo sapiens, UniProt Q04771)
T2 sequence (Q04771 whole entry): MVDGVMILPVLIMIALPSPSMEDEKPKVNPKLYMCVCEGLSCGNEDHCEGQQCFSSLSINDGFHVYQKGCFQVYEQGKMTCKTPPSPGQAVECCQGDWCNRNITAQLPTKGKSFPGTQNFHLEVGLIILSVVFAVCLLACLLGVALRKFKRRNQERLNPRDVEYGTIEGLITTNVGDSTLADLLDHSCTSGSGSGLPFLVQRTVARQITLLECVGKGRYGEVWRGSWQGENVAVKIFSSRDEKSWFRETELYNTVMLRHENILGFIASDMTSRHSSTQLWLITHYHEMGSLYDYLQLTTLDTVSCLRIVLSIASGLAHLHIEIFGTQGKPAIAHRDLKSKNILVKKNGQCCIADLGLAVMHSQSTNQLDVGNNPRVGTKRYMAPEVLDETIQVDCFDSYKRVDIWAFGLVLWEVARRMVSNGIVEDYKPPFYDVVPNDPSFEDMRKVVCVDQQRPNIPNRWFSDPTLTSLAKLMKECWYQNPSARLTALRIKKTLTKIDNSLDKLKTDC

[4] = target: Serine/threonine-protein kinase SIK2 (Homo sapiens, UniProt Q9H0K1)
Sequence of Serine/threonine-protein kinase SIK2 (Q9H0K1 whole entry): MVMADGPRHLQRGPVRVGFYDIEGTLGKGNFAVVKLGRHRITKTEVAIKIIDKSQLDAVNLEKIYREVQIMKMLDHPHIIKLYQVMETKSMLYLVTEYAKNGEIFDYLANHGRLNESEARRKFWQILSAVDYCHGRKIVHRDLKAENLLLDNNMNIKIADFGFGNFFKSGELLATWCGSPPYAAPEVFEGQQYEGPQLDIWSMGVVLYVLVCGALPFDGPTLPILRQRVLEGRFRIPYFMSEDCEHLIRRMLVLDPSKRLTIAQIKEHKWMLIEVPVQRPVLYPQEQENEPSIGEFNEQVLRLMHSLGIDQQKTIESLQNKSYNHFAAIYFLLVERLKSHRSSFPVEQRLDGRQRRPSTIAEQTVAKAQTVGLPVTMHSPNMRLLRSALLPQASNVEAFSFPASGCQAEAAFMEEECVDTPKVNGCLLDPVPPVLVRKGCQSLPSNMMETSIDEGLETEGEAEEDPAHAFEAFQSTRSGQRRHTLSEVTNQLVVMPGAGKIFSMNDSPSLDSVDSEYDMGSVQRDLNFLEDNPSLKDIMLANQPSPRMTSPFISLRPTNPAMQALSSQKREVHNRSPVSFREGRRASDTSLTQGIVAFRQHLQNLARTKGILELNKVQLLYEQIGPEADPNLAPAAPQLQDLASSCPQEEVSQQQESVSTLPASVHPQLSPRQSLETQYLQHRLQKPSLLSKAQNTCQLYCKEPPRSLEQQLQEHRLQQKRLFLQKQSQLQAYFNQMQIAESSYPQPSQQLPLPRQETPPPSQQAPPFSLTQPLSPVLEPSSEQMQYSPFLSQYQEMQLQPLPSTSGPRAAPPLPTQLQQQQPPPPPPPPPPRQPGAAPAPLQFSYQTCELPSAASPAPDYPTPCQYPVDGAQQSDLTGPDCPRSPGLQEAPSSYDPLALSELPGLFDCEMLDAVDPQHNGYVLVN

Sequence of Activated CDC42 kinase 1 (Q07912 whole entry): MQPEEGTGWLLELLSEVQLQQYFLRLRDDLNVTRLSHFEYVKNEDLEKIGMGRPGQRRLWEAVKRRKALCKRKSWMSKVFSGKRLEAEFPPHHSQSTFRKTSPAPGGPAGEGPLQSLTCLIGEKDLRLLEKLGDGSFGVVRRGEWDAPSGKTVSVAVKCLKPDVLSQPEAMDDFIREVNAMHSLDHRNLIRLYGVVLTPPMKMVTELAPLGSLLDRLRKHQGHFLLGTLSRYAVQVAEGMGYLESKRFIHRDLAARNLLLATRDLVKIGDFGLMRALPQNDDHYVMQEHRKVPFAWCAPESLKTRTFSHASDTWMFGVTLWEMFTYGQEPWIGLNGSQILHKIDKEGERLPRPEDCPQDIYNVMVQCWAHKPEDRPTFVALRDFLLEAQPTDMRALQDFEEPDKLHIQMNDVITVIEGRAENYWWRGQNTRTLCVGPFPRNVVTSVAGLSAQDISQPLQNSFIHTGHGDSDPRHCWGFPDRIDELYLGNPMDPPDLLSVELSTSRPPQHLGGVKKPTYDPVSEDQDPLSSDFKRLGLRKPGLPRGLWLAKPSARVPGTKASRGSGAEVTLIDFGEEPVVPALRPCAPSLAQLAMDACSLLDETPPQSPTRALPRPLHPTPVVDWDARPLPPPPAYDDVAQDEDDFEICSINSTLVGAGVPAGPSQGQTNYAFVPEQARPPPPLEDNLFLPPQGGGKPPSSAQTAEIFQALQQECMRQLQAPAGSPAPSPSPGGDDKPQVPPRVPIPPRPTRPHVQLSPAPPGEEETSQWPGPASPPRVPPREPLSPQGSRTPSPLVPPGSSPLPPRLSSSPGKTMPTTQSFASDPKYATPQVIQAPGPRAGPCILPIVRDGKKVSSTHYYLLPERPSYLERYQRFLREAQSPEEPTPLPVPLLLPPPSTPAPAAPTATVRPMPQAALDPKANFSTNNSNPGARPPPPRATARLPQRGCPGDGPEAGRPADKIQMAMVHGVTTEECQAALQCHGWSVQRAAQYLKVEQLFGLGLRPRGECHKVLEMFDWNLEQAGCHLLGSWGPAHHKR
Sequence of Serine/threonine-protein kinase MRCK beta (Q9Y5S2 whole entry): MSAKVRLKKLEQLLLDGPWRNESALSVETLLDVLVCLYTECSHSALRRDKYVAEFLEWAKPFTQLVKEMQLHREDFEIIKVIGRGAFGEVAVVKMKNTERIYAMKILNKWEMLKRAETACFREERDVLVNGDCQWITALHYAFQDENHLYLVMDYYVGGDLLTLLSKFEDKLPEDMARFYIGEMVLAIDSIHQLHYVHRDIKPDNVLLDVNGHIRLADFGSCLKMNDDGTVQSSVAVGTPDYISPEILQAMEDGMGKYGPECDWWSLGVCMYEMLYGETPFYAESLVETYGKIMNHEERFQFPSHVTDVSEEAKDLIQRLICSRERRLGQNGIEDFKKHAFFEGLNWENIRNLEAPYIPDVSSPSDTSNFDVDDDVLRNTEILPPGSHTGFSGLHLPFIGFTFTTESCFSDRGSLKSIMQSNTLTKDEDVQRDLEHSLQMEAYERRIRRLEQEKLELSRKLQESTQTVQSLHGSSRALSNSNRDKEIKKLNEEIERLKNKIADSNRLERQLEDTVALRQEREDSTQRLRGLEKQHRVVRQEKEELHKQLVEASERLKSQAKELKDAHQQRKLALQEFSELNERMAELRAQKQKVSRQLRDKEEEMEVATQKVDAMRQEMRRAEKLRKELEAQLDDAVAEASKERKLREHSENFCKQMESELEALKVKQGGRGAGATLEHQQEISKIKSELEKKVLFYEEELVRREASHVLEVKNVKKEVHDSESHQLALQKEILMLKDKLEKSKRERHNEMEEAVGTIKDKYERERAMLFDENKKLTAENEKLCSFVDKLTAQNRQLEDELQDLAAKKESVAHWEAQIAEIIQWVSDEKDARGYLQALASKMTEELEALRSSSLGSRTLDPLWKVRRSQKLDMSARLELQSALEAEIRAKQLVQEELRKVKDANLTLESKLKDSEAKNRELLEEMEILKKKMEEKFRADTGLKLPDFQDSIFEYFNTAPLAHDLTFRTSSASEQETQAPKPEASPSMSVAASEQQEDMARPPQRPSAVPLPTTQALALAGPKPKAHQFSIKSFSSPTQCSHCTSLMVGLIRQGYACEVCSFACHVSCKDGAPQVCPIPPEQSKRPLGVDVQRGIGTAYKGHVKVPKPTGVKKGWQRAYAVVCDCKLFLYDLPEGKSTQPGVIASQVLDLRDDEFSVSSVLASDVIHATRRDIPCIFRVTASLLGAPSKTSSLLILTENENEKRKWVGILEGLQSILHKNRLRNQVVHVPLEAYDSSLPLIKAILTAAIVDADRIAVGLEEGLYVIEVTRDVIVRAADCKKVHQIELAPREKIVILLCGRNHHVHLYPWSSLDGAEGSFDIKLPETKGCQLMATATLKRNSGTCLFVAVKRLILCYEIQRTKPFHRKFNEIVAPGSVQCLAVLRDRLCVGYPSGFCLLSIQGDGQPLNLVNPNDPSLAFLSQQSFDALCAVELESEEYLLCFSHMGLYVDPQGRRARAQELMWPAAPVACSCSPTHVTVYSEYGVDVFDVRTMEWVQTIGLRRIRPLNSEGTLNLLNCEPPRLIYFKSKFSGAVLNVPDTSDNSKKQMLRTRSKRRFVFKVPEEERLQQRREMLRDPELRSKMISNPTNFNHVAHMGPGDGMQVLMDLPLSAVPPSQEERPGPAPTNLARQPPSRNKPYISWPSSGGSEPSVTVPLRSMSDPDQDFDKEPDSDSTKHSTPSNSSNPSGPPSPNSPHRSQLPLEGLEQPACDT

| Kd [1] | Kd (Activated CDC42 kinase 1) | Kd [2] | Kd [3] | Kd (Activin receptor type-1) | Kd [4] | SMILES |
| --- | --- | --- | --- | --- | --- | --- |
| > 30 µM (inactive) | > 30 µM (inactive) | > 30 µM (inactive) | > 30 µM (inactive) | > 30 µM (inactive) | > 30 µM (inactive) | N[C@@H]1CCCN(c2c(/C=C3\SC(=O)NC3=O)cccc2-c2ccccc2)C1 |
| > 30 µM (inactive) | > 30 µM (inactive) | > 30 µM (inactive) | > 30 µM (inactive) | > 30 µM (inactive) | > 30 µM (inactive) | Cc1ccc(S(=O)(=O)Nc2nc3ccccc3nc2Nc2ccc3nsnc3c2)cc1 |
| > 30 µM (inactive) | 1.01 µM (active) | > 30 µM (inactive) | > 30 µM (inactive) | 16.1 µM (active) | 41.8 µM (active) | CCN1CCN(Cc2ccc(-c3cc4c(N[C@H](C)c5ccccc5)ncnc4[nH]3)cc2)CC1 [AEE-788] |
| > 30 µM (inactive) | > 30 µM (inactive) | > 30 µM (inactive) | > 30 µM (inactive) | > 30 µM (inactive) | > 30 µM (inactive) | Cn1ncc(Cl)c1-c1cc(C(=O)N[C@H](CN)Cc2cccc(F)c2)sc1Cl [AFURESERTIB] |
| > 30 µM (inactive) | 0.005 µM (active) | > 30 µM (inactive) | > 30 µM (inactive) | > 30 µM (inactive) | 0.123 µM (active) | COc1cc(N2CCC(N3CCN(C)CC3)CC2)ccc1Nc1ncnc(Nc2ccccc2S(=O)(=O)C(C)C)n1 [ASP-3026] |
| > 30 µM (inactive) | > 30 µM (inactive) | > 30 µM (inactive) | > 30 µM (inactive) | > 30 µM (inactive) | > 30 µM (inactive) | CNS(=O)(=O)Nc1nccc(Cc2c(C)c3ccc(Oc4ncccn4)cc3oc2=O)c1F [AVUTOMETINIB] |
| > 30 µM (inactive) | 0.148 µM | > 30 µM (inactive) | 1.39 µM | > 30 µM (inactive) | > 30 µM (inactive) | COc1cc(CCc2cc(NC(=O)c3ccc(N4C[C@@H](C)N[C@@H](C)C4)cc3)n[nH]2)cc(OC)c1 [AZD-4547] |
| > 30 µM (inactive) | > 30 µM (inactive) | > 30 µM (inactive) | > 30 µM (inactive) | > 30 µM (inactive) | > 30 µM (inactive) | Cc1cc([C@@H](C)Nc2ccccc2C(=O)O)c2nc(N3CCOCC3)cc(=O)n2c1 [AZD-6482] |
| > 30 µM (inactive) | > 30 µM (inactive) | > 30 µM (inactive) | > 30 µM (inactive) | > 30 µM (inactive) | > 30 µM (inactive) | COc1ccc(-c2ccc3c(N4CCOC[C@@H]4C)nc(N4CCOC[C@@H]4C)nc3n2)cc1CO [AZD-8055] |
| > 30 µM (inactive) | > 30 µM (inactive) | > 30 µM (inactive) | > 30 µM (inactive) | > 30 µM (inactive) | > 30 µM (inactive) | C[C@@H](Nc1cc(F)cc(F)c1)c1cc(C(=O)N(C)C)cc2c(=O)cc(N3CCOCC3)oc12 [AZD-8186] |
| > 30 µM (inactive) | > 30 µM (inactive) | > 30 µM (inactive) | > 30 µM (inactive) | > 30 µM (inactive) | > 30 µM (inactive) | Cc1ccc(NC(=O)c2ccc(CN3CC[C@H](N(C)C)C3)c(C(F)(F)F)c2)cc1Nc1nccc(-c2cncnc2)n1 [BAFETINIB] |
| > 30 µM (inactive) | > 30 µM (inactive) | > 30 µM (inactive) | > 30 µM (inactive) | > 30 µM (inactive) | > 30 µM (inactive) | CCS(=O)(=O)N1CC(CC#N)(n2cc(-c3ncnc4[nH]ccc34)cn2)C1 [BARICITINIB] |
| > 30 µM (inactive) | > 30 µM (inactive) | > 30 µM (inactive) | > 30 µM (inactive) | > 30 µM (inactive) | > 30 µM (inactive) | Cc1cc2c(F)c(Oc3ncnn4cc(OC[C@@H](C)OC(=O)[C@H](C)N)c(C)c34)ccc2[nH]1 [BRIVANIB ALANINATE] |
| > 30 µM (inactive) | > 30 µM (inactive) | > 30 µM (inactive) | > 30 µM (inactive) | > 30 µM (inactive) | > 30 µM (inactive) | CNC(=O)c1ccc(-c2cnc3ncc(Cc4ccc5ncccc5c4)n3n2)cc1F [CAPMATINIB] |
| > 30 µM (inactive) |  | > 30 µM (inactive) | 2.14 µM (active) | 0.396 µM (active) | 1.4 µM (active) | Cc1nc(N)sc1-c1ccnc(Nc2ccc(N3CCOCC3)cc2)n1 [CYC-116] |
| > 30 µM (inactive) |  | > 30 µM (inactive) | > 30 µM (inactive) | > 30 µM (inactive) | > 30 µM (inactive) | CCc1cnn2c(NCc3ccc[n+]([O-])c3)cc(N3CCCC[C@H]3CCO)nc12 [DINACICLIB] |
| > 30 µM (inactive) | > 30 µM (inactive) | > 30 µM (inactive) | > 30 µM (inactive) | > 30 µM (inactive) | > 30 µM (inactive) | COC(=O)N[C@@H](C)CNc1nccc(-c2cn(C(C)C)nc2-c2cc(Cl)cc(NS(C)(=O)=O)c2F)n1 [ENCORAFENIB] |
| > 30 µM (inactive) |  | > 30 µM (inactive) |  |  | > 30 µM (inactive) | Cc1cc(Nc2cc(N3CCN(C)CC3)nc(/C=C/c3ccccc3)n2)n[nH]1 [ENMD-2076] |
| > 30 µM (inactive) | > 30 µM (inactive) | > 30 µM (inactive) |  | > 30 µM (inactive) | > 30 µM (inactive) | Cc1c(F)cc(C(=O)NC2CC2)cc1-c1ccc(C(=O)NCC(C)(C)C)cn1 [LOSMAPIMOD] |
| > 30 µM (inactive) |  | > 30 µM (inactive) | > 30 µM (inactive) |  | > 30 µM (inactive) | OCCn1cc(-c2cnc3nnn(Cc4ccc5ncccc5c4)c3n2)cn1 [PF-04217903] |
| > 30 µM (inactive) | > 30 µM (inactive) | > 30 µM (inactive) |  | > 30 µM (inactive) | > 30 µM (inactive) | COc1cc2nccc(Oc3ccc(NC(=O)Nc4cc(C)on4)c(Cl)c3)c2cc1OC [TIVOZANIB] |

| SMILES | Kd [1] | Kd (Activated CDC42 kinase 1) | Kd [2] | Kd [3] | Kd (Activin receptor type-1) | Kd [4] |
| --- | --- | --- | --- | --- | --- | --- |
| CN1CC[C@@H](c2c(O)cc(O)c3c(=O)cc(-c4ccccc4Cl)oc23)[C@@H]1CO | > 30 µM (inactive) | > 30 µM (inactive) | > 30 µM (inactive) | > 30 µM (inactive) | > 30 µM (inactive) | > 30 µM (inactive) |
| Cc1cc(-c2cc(O)ccc2Cl)cc2nnc(Nc3ccc(OCCN4CCCC4)cc3)nc12 | > 30 µM (inactive) | > 30 µM (inactive) | > 30 µM (inactive) | > 30 µM (inactive) | > 30 µM (inactive) | 0.002 µM (active) |
| O=C(c1ccc(F)c(F)c1Nc1ccc(I)cc1F)N1CC(O)([C@@H]2CCCCN2)C1 [COBIMETINIB] | > 30 µM (inactive) | > 30 µM (inactive) | > 30 µM (inactive) | > 30 µM (inactive) | > 30 µM (inactive) | > 30 µM (inactive) |
| COC(=O)[C@@]1(O)C[C@H]2O[C@]1(C)n1c3ccccc3c3c4c(c5c6ccccc6n2c5c31)C(=O)NC4 [K-252A] | > 30 µM (inactive) |  | 0.335 µM (active) | 0.01 µM (active) | > 30 µM (inactive) | 0.058 µM (active) |
| O=C(Nc1cccc(Cl)c1)Nc1ncc(CCNc2ncnc3ccsc23)s1 [SNS-314] | > 30 µM (inactive) |  | > 30 µM (inactive) | > 30 µM (inactive) | > 30 µM (inactive) | > 30 µM (inactive) |

Reference: ChEMBL document CHEMBL3991601, “The target landscape of clinical kinase drugs” (Science, 2017)
